# Results from ChEMBL document CHEMBL1759968, “Synthesis and biological evaluation of unsaturated keto and exomethylene D-arabinopyranonucleoside analogs: novel 5-fluorouracil analogs that target thymidylate synthase” (Eur J Med Chem, 2011).
# Active and inactive are the calls of the source. The rule behind the calls is not given here.
# How the values were obtained:
# [1] = Stability of compound in phosphate buffered saline up to 3 days; type: physicochemical; conditions: buffer, 72 h
# [2] = Stability of compound in phosphate buffer at pH 6.2 after 60 mins; type: physicochemical; conditions: pH 6.2, 1 h
# Thymidylate synthase [3] = biological target: T1, Thymidylate synthase (Mus musculus, UniProt P07607); test: Inhibition of thymidylate synthase in mouse L1210 cells assessed as inhibition of tritium release from [5-3H]deoxyuridine after preincubation for 15 mins by liquid scintillation counting; type: cell-based
# T1 sequence (P07607 whole entry): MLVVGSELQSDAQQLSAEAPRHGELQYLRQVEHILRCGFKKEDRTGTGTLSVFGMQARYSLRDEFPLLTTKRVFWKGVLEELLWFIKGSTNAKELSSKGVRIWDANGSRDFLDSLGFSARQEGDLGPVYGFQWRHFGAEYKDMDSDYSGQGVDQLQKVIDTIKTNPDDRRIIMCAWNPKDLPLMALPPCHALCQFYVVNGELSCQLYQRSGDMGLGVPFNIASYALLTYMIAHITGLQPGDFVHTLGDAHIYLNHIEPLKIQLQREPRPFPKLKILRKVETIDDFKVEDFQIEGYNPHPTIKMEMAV
# Thymidylate synthase [4] = biological target: T1, Thymidylate synthase; test: Inhibition of thymidylate synthase in mouse L1210 cells assessed as inhibition of tritium release from [5-3H]deoxyuridine after preincubation for 4 hrs by liquid scintillation counting; type: cell-based
# Thymidylate synthase [5] = biological target: T1, Thymidylate synthase; test: Inhibition of thymidylate synthase in mouse L1210 cells assessed as inhibition of tritium release from [5-3H]deoxyuridine after preincubation for 24 hrs by liquid scintillation counting; type: cell-based
# Thymidylate synthase [6] = biological target: T1, Thymidylate synthase; test: Inhibition of thymidylate synthase in mouse L1210 cells assessed as inhibition of tritium release from [5-3H]deoxycytidine after preincubation for 15 mins by liquid scintillation counting; type: cell-based
# Thymidylate synthase [7] = biological target: T1, Thymidylate synthase; test: Inhibition of thymidylate synthase in mouse L1210 cells assessed as inhibition of tritium release from [5-3H]deoxycytidine after preincubation for 4 hrs by liquid scintillation counting; type: cell-based
# Thymidylate synthase [8] = biological target: T1, Thymidylate synthase; test: Inhibition of thymidylate synthase in mouse L1210 cells assessed as inhibition of tritium release from [5-3H]deoxycytidine after preincubation for 24 hrs by liquid scintillation counting; type: cell-based
# [9] = tested on: Mammalian orthoreovirus 1; test: Antiviral activity against Reovirus 1 infected in Vero cells assessed as inhibition of virus-induced cytopathic effect; type: functional, organism-based
# Human respirovirus 3 = test: Antiviral activity against Human parainfluenza virus 3 infected in Vero cells assessed as inhibition of virus-induced cytopathic effect; type: functional, organism-based
# [10] = tested on: Vesicular stomatitis virus; test: Antiviral activity against Vesicular stomatitis virus infected in HEL cells assessed as inhibition of virus-induced cytopathic effect; type: functional, organism-based
# Vaccinia virus = test: Antiviral activity against Vaccinia virus infected in HEL cells assessed as inhibition of virus-induced cytopathic effect; type: functional, organism-based; conditions: Orthopoxvirus vaccinia
# Human alphaherpesvirus 2 = test: Antiviral activity against Herpes simplex virus type-2 infected in HEL cells assessed as inhibition of virus-induced cytopathic effect; type: functional, organism-based
# Human alphaherpesvirus 1 = test: Antiviral activity against Herpes simplex virus type-1 infected in HEL cells assessed as inhibition of virus-induced cytopathic effect; type: functional, organism-based
# L1210 [11] = test: Cytostatic activity against mouse L1210 cells after 2 days by coulter counting analysis; type: functional, cell-based; conditions: L1210, 48 h
# FM3A [12] = test: Cytostatic activity against mouse FM3A cells after 2 days by coulter counting analysis; type: functional, cell-based; conditions: 48 h
# CCRF-CEM [13] = test: Cytostatic activity against human CEM cells after 3 days by coulter counting analysis; type: functional, cell-based; conditions: 72 h
# HeLa [14] = test: Cytostatic activity against human HeLa cells after 3 days by coulter counting analysis; type: functional, cell-based; conditions: 72 h
# L1210 [15] = test: Cytostatic activity against mouse L1210 cells in presence of 20 uM thymidine; type: functional, cell-based
# L1210 [16] = test: Cytostatic activity against mouse L1210 cells in presence of 20 uM 2'-deoxyuridine; type: functional, cell-based
# L1210 [17] = test: Cytostatic activity against mouse L1210 cells in presence of 500 uM uridine; type: functional, cell-based
# L1210 [18] = test: Cytostatic activity against mouse L1210 cells in presence of 500 uM uracil; type: functional, cell-based
# HeLa [19] = test: Cytostatic activity against human HeLa cells in presence of 20 uM thymidine; type: functional, cell-based
# HeLa [20] = test: Cytostatic activity against human HeLa cells in presence of 20 uM 2'-deoxyuridine; type: functional, cell-based
# HeLa [21] = test: Cytostatic activity against human HeLa cells in presence of 500 uM uridine; type: functional, cell-based
# HeLa [22] = test: Cytostatic activity against human HeLa cells in presence of 500 uM uracil; type: functional, cell-based
# L1210 [23] = test: Inhibition of DNA synthesis in mouse L1210 cells assessed as [methyl-3H]thymidine incorporation in to DNA by liquid scintillation counting; type: functional, cell-based
# L1210 [24] = test: Inhibition of DNA synthesis in mouse L1210 cells assessed as [6-3H]2'-deoxyuridine incorporation in to DNA by liquid scintillation counting; type: functional, cell-based
# L1210 [25] = test: Inhibition of RNA synthesis in mouse L1210 cells assessed as [5-3H]uridine incorporation in to RNA by liquid scintillation counting; type: functional, cell-based
# L1210 [26] = test: Inhibition of DNA synthesis in mouse L1210 cells assessed as [methyl-3H]thymidine incorporation in to DNA preincubated for 24 hrs by liquid scintillation counting; type: functional, cell-based
# L1210 [27] = test: Inhibition of DNA synthesis in mouse L1210 cells assessed as [6-3H]2'-deoxyuridine incorporation in to DNA preincubated for 24 hrs by liquid scintillation counting; type: functional, cell-based
# L1210 [28] = test: Inhibition of RNA synthesis in mouse L1210 cells assessed as [5-3H]uridine incorporation in to RNA preincubated for 24 hrs by liquid scintillation counting; type: functional, cell-based
# Punta Toro virus = test: Antiviral activity against Punta Toro virus infected in Vero cells assessed as inhibition of virus-induced cytopathic effect; type: functional, organism-based
# [29] = tested on: Vesicular stomatitis virus; test: Antiviral activity against Vesicular stomatitis virus infected in HeLa cells assessed as inhibition of virus-induced cytopathic effect; type: functional, organism-based
# [30] = tested on: Respiratory syncytial virus; test: Antiviral activity against Respiratory syncytial virus infected in HeLa cells assessed as inhibition of virus-induced cytopathic effect; type: functional, organism-based
# Sindbis virus = test: Antiviral activity against Sindbis virus infected in Vero cells assessed as inhibition of virus-induced cytopathic effect; type: functional, organism-based
# Coxsackievirus B4 [31] = test: Antiviral activity against Human coxsackievirus B4 infected in Vero cells assessed as inhibition of virus-induced cytopathic effect; type: functional, organism-based
# Coxsackievirus B4 [32] = test: Antiviral activity against Human coxsackievirus B4 infected in HeLa cells assessed as inhibition of virus-induced cytopathic effect; type: functional, organism-based
# HeLa [33] = test: Ratio of compound IC50 to 5-flurouracil IC50 for human HeLa cells; type: functional
# CCRF-CEM [34] = test: Ratio of compound IC50 to 5-flurouracil IC50 for human CEM cells; type: functional
# FM3A [35] = test: Ratio of compound IC50 to 5-flurouracil IC50 for mouse FM3A cells; type: functional
# L1210 [36] = test: Ratio of compound IC50 to 5-flurouracil IC50 for mouse L1210 cells; type: functional
Structure (SMILES),IC50 (Thymidylate synthase [3]),IC50 (Thymidylate synthase [4]),IC50 (Thymidylate synthase [5]),IC50 (Thymidylate synthase [6]),IC50 (Thymidylate synthase [8]),Activity [9],Activity (Human respirovirus 3),Activity [10],Activity (Vaccinia virus),Activity (Human alphaherpesvirus 2),Activity (Human alphaherpesvirus 1),IC50 (FM3A [12]),IC50 (L1210 [15]),IC50 (L1210 [16]),IC50 (L1210 [17]),IC50 (L1210 [18]),IC50 (HeLa [19]),IC50 (HeLa [20]),IC50 (HeLa [21]),IC50 (HeLa [22]),further results
C=C1[C@H](O)[C@H](O)CO[C@@H]1n1cc(F)c(=O)[nH]c1=O,≥ 10 µM,3.6 µM,0.57 µM,8.2 µM,5.4 µM,,,,,,,,,,,,,,,,Stability [1]: Stable; Stability [2]: Stable; IC50 (Thymidylate synthase [7]): 5.5 µM
C=C1[C@H](O)[C@H](O)CO[C@@H]1n1cc(F)c(O)nc1=O,,,,,,inactive,inactive,inactive,inactive,inactive,inactive,1.9 µM,> 500 µM,66 µM,18 µM,18 µM,146 µM,12 µM,79 µM,58 µM,IC50 (L1210 [11]): 21 µM; IC50 (CCRF-CEM [13]): 97 µM; IC50 (HeLa [14]): 18 µM; IC50 (L1210 [23]): > 500 µM; IC50 (L1210 [24]): 85 µM; IC50 (L1210 [25]): > 100 µM; IC50 (L1210 [26]): > 500 µM; IC50 (L1210 [27]): 18 µM; IC50 (L1210 [28]): 282 µM; Activity (Punta Toro virus): inactive; Activity [29]: inactive; Activity [30]: inactive; Activity (Sindbis virus): inactive; Activity (Coxsackievirus B4 [31]): inactive; Activity (Coxsackievirus B4 [32]): inactive
O=C1C=CCO[C@@H]1n1cc(F)c(O)nc1=O,,,,,,inactive,inactive,inactive,inactive,inactive,inactive,0.23 µM,75 µM,3.5 µM,2 µM,1 µM,7.1 µM,0.62 µM,5.3 µM,8 µM,Ratio (HeLa [33]): 1.5; Ratio (CCRF-CEM [34]): 1.5; Ratio (FM3A [35]): 1.5; Ratio (L1210 [36]): 1.5; IC50 (L1210 [11]): 1.3 µM; IC50 (CCRF-CEM [13]): 17 µM; IC50 (HeLa [14]): 0.97 µM; IC50 (L1210 [23]): 349 µM; IC50 (L1210 [24]): 3.1 µM; IC50 (L1210 [25]): 63 µM; IC50 (L1210 [26]): 294 µM; IC50 (L1210 [27]): 2.5 µM; IC50 (L1210 [28]): 16 µM; Activity (Punta Toro virus): inactive; Activity [29]: inactive; Activity [30]: inactive; Activity (Sindbis virus): inactive; Activity (Coxsackievirus B4 [31]): inactive; Activity (Coxsackievirus B4 [32]): inactive
O=C1C=CCO[C@@H]1n1cc(F)c(=O)[nH]c1=O,8.1 µM,0.83 µM,0.063 µM,> 10 µM,0.071 µM,,,,,,,,,,,,,,,,Stability [1]: Unstable; IC50 (Thymidylate synthase [7]): 0.95 µM
C=C1C=CCO[C@@H]1n1cc(F)c(=O)[nH]c1=O,> 10 µM,8.7 µM,0.43 µM,> 10 µM,2.2 µM,,,,,,,,,,,,,,,,Stability [1]: Stable; Stability [2]: Stable; IC50 (Thymidylate synthase [7]): 9.3 µM
O=c1[nH]c(=O)n([C@H]2C[C@H](O)[C@@H](CO)O2)cc1F [FLOXURIDINE],0.0006 µM,0.0004 µM,0.0004 µM,0.0006 µM,0.0007 µM,inactive,inactive,inactive,inactive,inactive,inactive,0.0094 µM,100 µM,0.0051 µM,0.0023 µM,0.00063 µM,8.5 µM,0.021 µM,0.061 µM,0.11 µM,IC50 (L1210 [11]): 0.0011 µM; Activity (Punta Toro virus): inactive; Activity [29]: inactive; Activity [30]: inactive; Activity (Sindbis virus): inactive; Activity (Coxsackievirus B4 [31]): inactive; Activity (Coxsackievirus B4 [32]): inactive
C=C1C=CCO[C@@H]1n1cc(F)c(O)nc1=O,,,,,,inactive,inactive,inactive,inactive,inactive,inactive,2.4 µM,182 µM,18 µM,5.7 µM,5.8 µM,34 µM,1.4 µM,8 µM,18 µM,IC50 (L1210 [11]): 8 µM; IC50 (CCRF-CEM [13]): 85 µM; IC50 (HeLa [14]): 3.5 µM; IC50 (L1210 [23]): > 500 µM; IC50 (L1210 [24]): 37 µM; IC50 (L1210 [25]): > 100 µM; IC50 (L1210 [26]): > 500 µM; IC50 (L1210 [27]): 7.9 µM; IC50 (L1210 [28]): 84 µM; Activity (Punta Toro virus): inactive; Activity [29]: inactive; Activity [30]: inactive; Activity (Sindbis virus): inactive; Activity (Coxsackievirus B4 [31]): inactive; Activity (Coxsackievirus B4 [32]): inactive
O=c1[nH]cc(F)c(=O)[nH]1 [FLUOROURACIL],7 µM,0.22 µM,0.02 µM,≥ 10 µM,0.06 µM,inactive,inactive,inactive,inactive,inactive,inactive,0.18 µM,21 µM,1.3 µM,0.62 µM,0.47 µM,1.5 µM,0.18 µM,1.1 µM,1 µM,IC50 (HeLa [14]): 0.45 µM; IC50 (L1210 [23]): > 500 µM; IC50 (L1210 [24]): 0.97 µM; IC50 (L1210 [25]): 51 µM; IC50 (L1210 [26]): > 500 µM; IC50 (L1210 [27]): 0.37 µM; IC50 (L1210 [28]): 4.9 µM; IC50 (Thymidylate synthase [7]): 0.6 µM; Activity (Punta Toro virus): inactive; Activity [29]: inactive; Activity [30]: inactive; Activity (Sindbis virus): inactive; Activity (Coxsackievirus B4 [31]): inactive; Activity (Coxsackievirus B4 [32]): inactive
